Laboratory results taken from paper PMC10765375, “Crystal structure and enzymology of Solanum tuberosum inositol tris/tetrakisphosphate kinase 1 (StITPK1)” (Biochemistry, 2023).
“Also recorded” adds a separate entry of the source. Where a name gives a salt, the structure may show the parent alone. Read-outs that look alike come from different tables or passages of the source.

Columns and labels:
[1] = target: T1, StITPK1 (Solanum tuberosum, UniProt A4H2J0); test: Reverse (phosphotransfer to ADP) assay, HPLC; type: biochemical; details: 0.5 mM ADP, 12h
Method: The low rate constants for phospho-kinase activity and the low sensitivity of NMR, PAGE and HPLC […]
(§1) [2-3, 27-29], here with or without 4 µM protein for 3h or 12h at 25 °C. […]
(phosphotransfer to ADP) assays were performed with 20 mM HEPES pH 6.5, 1 mM MgCl2, 0.5mM ADP and 0.5 mM inositol pyrophosphate substrate incubated with 4 µM protein at 25 °C . HPLC analysis and detection of inositol phosphates by complexation with ferric ion was performed as described. Peak area data were analysed with the chromatography Jasco ChromNav v.2 software and x,y data were imported into GraphPad Prism v.6 software (GraphPad Software Inc., San Diego, USA) for plotting of chromatograms without additional processing of the data. […]

[2] = target: T1, StITPK1; test: Fluorescence polarization saturation binding of 2-FAM-InsP5; details: 2 nM probe, 1-500 nM StITPK1, one-site binding model
Method: Schrödinger, LLC, New York, NY, 2021). All models of the complexes were subsequently energy minimized to convergence using the Prime module of Schrodinger (Schrödinger Release 2022-2: Prime) employing the all atom OPLS force field and the VSGB 2.1 implicit solvent model. Illustrations were generated using the PyMOL Molecular Graphics System, Version 2.5 (Schrödinger, LLC).
(§2) Kinase assays were performed with ATP-regeneration as described for ATP-grasp kinases ITPK1/2 and VIH1/2 [2-3, 27-29], here in 20 mM HEPES pH 6.5, 1 mM MgCl2, 0.5 mM ATP and 1 mM inositol phosphate substrate. The low rate constants for phospho-kinase activity and the low sensitivity of NMR, PAGE and HPLC […]
(§3) [2-3, 27-29], here with or without 4 µM protein for 3h or 12h at 25 °C. Competition/inhibition assays were […]
(§4) InsP6, and competitor, typically 0.5 mM, incubated with or without 3 µM protein for 2 h at 25 °C . […] Peak area data were analysed with the chromatography Jasco ChromNav v.2 software and x,y data were imported into GraphPad Prism v.6 software (GraphPad Software Inc., San Diego, USA) for plotting of chromatograms without additional processing of the data.
(§5) Fluorescence polarization (anisotropy) […]
or analog thereof with 2 nM 2-FAM-InsP5 and 50 nM StITPK1. […] Fluorescence polarization was measured in 384-well, black, low-binding plates, Corning product 3573. […]

[3] = target: T1, StITPK1; test: Fluorescence polarization displacement of 2-FAM-InsP5; type: binding; details: Cheng-Prusoff with Kd 48 nM
Source text: To determine the relative strengths of binding of different inositol phosphate and inositol pyrophosphate substrates of StITPK1 we undertook fluorescence polarization experiments with 2-FAM-InsP5 [35]. […] A saturation curve for binding of 2-FAM-InsP5 to StITPK1 is shown (Figure S5) and displacement curves are shown for diverse inositol phosphates (Figure 2). The structures of these compounds are shown (Figure S1). […]
Fluorescence polarization (anisotropy)
A curve for binding of 2-FAM-InsP5 to StITPK1 was obtained by incubation of 2 nM 2-FAM-InsP5 [1] with increasing concentration (1-500 nM) of StITPK1 in 20 mM HEPES pH 6.5, 1 mM EDTA, 100 mM NaCl, after. Thereafter, displacement assays were performed by titration of inositol phosphate, inositol pyrophosphate […]
or analog thereof with 2 nM 2-FAM-InsP5 and 50 nM StITPK1. Compounds were tested for displacement in a range of 1 nM - 50 µM. Fluorescence polarization was measured in 384-well, black, low-binding plates, Corning product 3573. Binding and displacement curves (anisotropy) were log transformed and fitted to a 4-parameter logistic (in GraphPad Prism v.6 software (GraphPad Software Inc., San Diego, USA). Fitting of the […]
Substituting the value of Kd for KM in the Cheng-Prusoff equation for competitive inhibition: […]
with concentration of 2-FAM-InsP5 [S], yielded Ki with confidence intervals adjusted by linear approximation.
M.; Jamieson, A. G.; Potter, B. V.; Schwabe, J. W., Insights into the activation mechanism of class I HDAC complexes by inositol phosphates. Nat Commun 2016, 7, 11262. […]

[4] = target: T1, StITPK1; test: Kinase assay with ATP, HPLC of products; type: biochemical; details: for Product formation (3h) / Product formation (12h): 25°C; for kinase substrate status: with ATP, HPLC
Method: as §2, §3
InsP6, and competitor, typically 0.5 mM, incubated with or without 3 µM protein for 2 h at 25 °C . […]
(§6) 0.5 mM inositol pyrophosphate substrate incubated with 4 µM protein at 25 °C . HPLC analysis and detection of inositol phosphates by complexation with ferric ion was performed as described. Peak area data were analysed with the chromatography Jasco ChromNav v.2 software and x,y data were imported into GraphPad Prism v.6 software (GraphPad Software Inc., San Diego, USA) for plotting of chromatograms without additional processing of the data. […]

[5] = target: T1, StITPK1; test: Competition/inhibition of Ins(1,2,3,4,5)P5 5-phospho-kinase activity, HPLC; type: biochemical; details: 0.5 mM competing substrate/inhibitor, 1 mM Ins(1,2,3,4,5)P5, 3h experiment
[6] = target: T2, AtITPK1; test: Kinase assay with ATP, HPLC of products; type: biochemical, Arabidopsis thaliana; details: for kinase substrate status: with ATP, HPLC
T2 construct: made in house
Method: as §2, §1, §6

[7] = test system: AtVIH2; design: method as in PMID 31436531; details: isolated kinase domain ref 24; cited from earlier work
[8] = target: T1, StITPK1; test: Competition/inhibition of InsP6 5-phospho-kinase activity, HPLC; type: biochemical; details: 5 μM inhibitor, 1 mM InsP6
Method: Figure 6 Inhibition of StITPK1 phospho-kinase activity by inositol pyrophosphate analogs. […] Reactions were performed for 2h at 30 °C with 3 μM StITPK1, 0.5 mM ATP, 1mM inositol phosphate in the absence or presence of competitor. The extent of inhibition at inhibitor concentration (mM) indicated by number in each column was estimated from the integrated peak areas of substrate and product peaks resolved by HPLC (example HPLC traces are shown in Figure S10). Significant difference at p=0.05 between inhibitor treatments (by One-way ANOVA and Tukey’s multiple comparisons test) is indicated by the absence of a common letter.
Schrödinger, LLC, New York, NY, 2021). All models of the complexes were subsequently energy minimized to convergence using the Prime module of Schrodinger (Schrödinger Release 2022-2: Prime) employing the all atom OPLS force field and the VSGB 2.1 implicit solvent model. Illustrations were generated using the PyMOL Molecular Graphics System, Version 2.5 (Schrödinger, LLC). […]
as §4, §5

[9] = test system: T2, AtITPK1; details: cited from earlier work
[10] = 2 nM 2-FAM-InsP5, 50 nM StITPK1, pH 6.5, read-out: Ki for displacement of 2-FAM-InsP5

T1 sequence (A4H2J0 entry or part of it): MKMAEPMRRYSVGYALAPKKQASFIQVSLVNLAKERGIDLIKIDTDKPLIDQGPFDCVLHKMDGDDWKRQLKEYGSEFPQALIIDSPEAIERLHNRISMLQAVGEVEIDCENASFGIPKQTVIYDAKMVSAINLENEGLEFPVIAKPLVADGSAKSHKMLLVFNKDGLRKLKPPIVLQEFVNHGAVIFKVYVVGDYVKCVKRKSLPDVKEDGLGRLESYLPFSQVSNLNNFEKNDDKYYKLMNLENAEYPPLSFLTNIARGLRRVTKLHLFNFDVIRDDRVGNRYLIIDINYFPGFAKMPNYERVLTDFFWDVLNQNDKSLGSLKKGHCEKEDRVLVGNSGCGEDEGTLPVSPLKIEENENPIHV

SMILES: O=P(O)(O)CP(=O)(O)OC1C(OP(=O)(O)O)C(OP(=O)(O)O)C(OP(=O)(O)O)C(OP(=O)(O)CP(=O)(O)O)C1OP(=O)(O)O (stereo not drawn) [1,5-[PCP]2-InsP4]
- substrate for phosphotransfer to ADP [1]: neither

SMILES: O=P(O)(O)O[C@@H]1[C@@H](OP(=O)(O)O)[C@H](OP(=O)(O)OP(=O)(O)O)[C@@H](OP(=O)(O)O)[C@H](OP(=O)(O)OP(=O)(O)O)[C@@H]1OP(=O)(O)O [1,5-[PP]2-InsP4, 1D-1,5-bis-diphospho-myo-inositol 2,3,4,6-tetrakisphosphate]
- substrate for phosphotransfer to ADP [1]: both enantiomers are substrates

SMILES: O=C(NCCO[C@H]1[C@@H](OP(=O)(O)O)[C@H](OP(=O)(O)O)[C@@H](OP(=O)(O)O)[C@H](OP(=O)(O)O)[C@H]1OP(=O)(O)O)c1ccc2c(c1)C(=O)OC21c2ccc(O)cc2Oc2cc(O)ccc21 [2-FAM-InsP5, 2-O-(2-(5-fluoresceinylcarboxy)-aminoethyl)-myo-inositol 1,3,4,5,6-pentakisphosphate (triethylammonium salt)]
- Kd [2]: 48 nM

SMILES: O=P(O)(O)O[C@@H]1[C@H](OP(=O)(O)O)[C@H](OP(=O)(O)OP(=O)(O)O)[C@@H](OP(=O)(O)O)[C@H](OP(=O)(O)OP(=O)(O)O)[C@H]1OP(=O)(O)O [3,5-[PP]2-InsP4, 1D-3,5-bis-diphospho-myo-inositol 1,2,4,6-tetrakisphosphate]
- substrate for phosphotransfer to ADP [1]: both enantiomers are substrates

SMILES: O=P(O)(O)O[C@H]1[C@@H](OP(=O)(O)O)[C@H](OP(=O)(O)O)[C@@H](OP(=O)(O)OP(=O)(O)O)[C@H](OP(=O)(O)O)[C@H]1OP(=O)(O)O [5-PP-InsP5, 5-diphospho-myo-inositol 1,2,3,4,6-pentakisphosphate]
- Ki [3, 10]: 162 nM
- Product formation (3h) ([4]; 1 mM substrate): 0 μM/μM protein
- Product formation (12h) ([4]; 1 mM substrate): 0 μM/μM protein
- kinase substrate status [4]: not a substrate
- % inhibition at 3h, Ins(1,2,3,4,5)P5 substrate [5]: 82%
- kinase substrate status [6]: not a substrate
- turnover number, 1-phospho-kinase activity [7]: ~ 1 min^-1

SMILES: O=P(O)(O)O[C@H]1[C@H](OP(=O)(O)O)[C@@H](OP(=O)(O)O)[C@@H](O)[C@@H](O)[C@@H]1OP(=O)(O)O [Ins(3,4,5,6)P4, 1D-myo-inositol 3,4,5,6-tetrakisphosphate]
- Ki [3, 10]: 716 nM
- Discrimination between InsP4 enantiomers in favour of Ins(3,4,5,6)P4 ([4]; vs Ins(1,4,5,6)P4): ~ 200 fold
- kinase substrate status [4]: better substrate than both its enantiomer Ins(1,4,5,6)P4 and InsP6
- inhibition of 5-PP-InsP5-synthesizing (InsP6 phospho-kinase) activity [8]: particularly powerful inhibitor
- Discrimination between InsP4 enantiomers in favour of Ins(3,4,5,6)P4 ([6]; vs Ins(1,4,5,6)P4): ~ 200 fold
- Vmax relative to InsP6 [9]: 3 orders of magnitude greater

SMILES: O=P(O)(O)O[C@H]1[C@H](OP(=O)(O)O)[C@@H](OP(=O)(O)O)[C@H](OP(=O)(O)O)[C@@H](OP(=O)(O)O)[C@H]1OP(=O)(O)O [myo-InsP6, myo-inositol 1,2,3,4,5,6-hexakisphosphate]
- Ki ([3]; Ki for displacement of 2-FAM-InsP5, 2 nM 2-FAM-InsP5, 50 nM StITPK1, pH 6.5): 126 nM
- Product formation (3h) ([4]; 1 mM substrate): 241 μM/μM protein
- Product formation (12h) ([4]; 1 mM substrate): 289 μM/μM protein
- Product formation (separate 12h experiment) ([4]; 1 mM substrate, separate 12h experiment): 220 μM/μM protein
- Kcat (turnover of substrate) ([4]; in the absence of inhibitor, 1 mM substrate, 0.5 mM ATP, pH 6.5): ~ 1.14 min^-1
- kinase substrate status [4]: generating 5-PP-InsP5; also recorded: strongest phospho-kinase substrate
- % inhibition at 3h, Ins(1,2,3,4,5)P5 substrate [5]: 89%
- kinase substrate status [6]: strongest phospho-kinase substrate
- Kcat for phospho-kinase activity ([9]; calculated from data ref 20-21, 27): ~ 1.5 min^-1
- turnover number, 1-phospho-kinase activity [7]: ~ 0.4 min^-1
